Data taken from patent US10253002B2, “Compounds and methods of treating infections” (Neoculi Pty Ltd., priority 2013, dated 2019).
In brackets after ≈: the same amount, converted by molar mass. Several values for one entry are separate records, joined by “and”; a condition that tells them apart may be missing. Equal entries are not always repeated. Where two headings read alike, the source gives them in different places.

Tests used:
VRE = assay: Broth microdilution MIC, Example 7 (NCL812 and analogues); type: cell-based, Enterococcus spp.; conditions: for MIC: Enterococcus, VRE
In short: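 Turbidity read visually and then at 600 nm defined the MIC (μg/ml), comparing drug-containing wells with a growth-control well lacking antimicrobial. Testing followed the CLSI broth microdilution method, in duplicate, using two strains per organism group.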

[1] = system: Staphylococcus aureus T3-129 / Staphylococcus spp. MK1; assay: Synergy studies, checkerboard method (FIC index); type: cell-based

With `N=C(N/N=C/c1ccc(Cl)cc1)N/N=C/c1ccc(Cl)cc1` [NCL812, 1,3-bis[(E)-(4-chlorophenyl)methyleneamino]guanidine] the MIC (VRE; 24 h, read-out: MIC (μg/ml) at 24 hours, VRE 1, isolate VRE 1, 24 hours, 1st and 2nd replicate rows) was 2 µg/mL (≈ 5.98 µM), the MIC (VRE; 24 h, read-out: MIC (μg/ml) at 24 hours, VRE 2, isolate VRE 2, 24 hours, 1st and 2nd replicate rows) was 2 µg/mL (≈ 5.98 µM) and the MIC (VRE; VRE 002 [H12c], Phase I, 1st, read-out: MIC) was 4 µg/mL (≈ 12 µM). The MIC (VRE; VRE 002 [H12c], Phase I, 2nd, read-out: MIC) was 4 µg/mL (≈ 12 µM), the MIC (VRE; VRE 002 [H12c], Phase II, 1st, read-out: MIC) was 2 µg/mL (≈ 5.98 µM) and the MIC (VRE; VRE 002 [H12c], Phase II, 2nd, read-out: MIC) was 2 µg/mL (≈ 5.98 µM). It also gave an MIC (VRE; VRE 003 [H14t], Phase I, 1st, read-out: MIC) of 2 µg/mL (≈ 5.98 µM), an MIC (VRE; VRE 003 [H14t], Phase I, 2nd, read-out: MIC) of 2 µg/mL (≈ 5.98 µM) and an MIC (VRE; VRE 003 [H14t], Phase II, 1st, read-out: MIC) of 2 µg/mL (≈ 5.98 µM). It also gave an MIC (VRE; VRE 003 [H14t], Phase II, 2nd, read-out: MIC) of 2 µg/mL (≈ 5.98 µM), an MIC (VRE; VRE 004 [H16c], Phase I, 1st, read-out: MIC) of 4 µg/mL (≈ 12 µM) and an MIC (VRE; VRE 004 [H16c], Phase I, 2nd, read-out: MIC) of 4 µg/mL (≈ 12 µM). For the same compound, the MIC (VRE; VRE 004 [H16c], Phase II, 1st, read-out: MIC) was 2 µg/mL (≈ 5.98 µM), the MIC (VRE; VRE 004 [H16c], Phase II, 2nd, read-out: MIC) was 2 µg/mL (≈ 5.98 µM) and the MIC (VRE; VRE 005 [H17c], Phase I, 1st, read-out: MIC) was 2 µg/mL (≈ 5.98 µM). The MIC (VRE; VRE 005 [H17c], Phase I, 2nd, read-out: MIC) was 2 µg/mL (≈ 5.98 µM), the MIC (VRE; VRE 005 [H17c], Phase II, 1st, read-out: MIC) was 2 µg/mL (≈ 5.98 µM) and the MIC (VRE; VRE 005 [H17c], Phase II, 2nd, read-out: MIC) was 2 µg/mL (≈ 5.98 µM). It also gave an MIC (VRE; VRE 006 [H19t], Phase I, 1st, read-out: MIC) of 2 µg/mL (≈ 5.98 µM), an MIC (VRE; VRE 006 [H19t], Phase I, 2nd, read-out: MIC) of 2 µg/mL (≈ 5.98 µM) and an MIC (VRE; VRE 006 [H19t], Phase II, 1st, read-out: MIC) of 2 µg/mL (≈ 5.98 µM). The MIC (VRE; VRE 006 [H19t], Phase II, 2nd, read-out: MIC) was 2 µg/mL (≈ 5.98 µM), the MIC (VRE; VRE 007 [H23c], Phase I, 1st, read-out: MIC) was 4 µg/mL (≈ 12 µM) and the MIC (VRE; VRE 007 [H23c], Phase I, 2nd, read-out: MIC) was 4 µg/mL (≈ 12 µM). It also gave an MIC (VRE; VRE 007 [H23c], Phase II, 1st, read-out: MIC) of 2 µg/mL (≈ 5.98 µM), an MIC (VRE; VRE 007 [H23c], Phase II, 2nd, read-out: MIC) of 2 µg/mL (≈ 5.98 µM) and an MIC (VRE; VRE 008 [H16c(dc)], Phase I, 1st, read-out: MIC) of 4 µg/mL (≈ 12 µM). The MIC (VRE; VRE 008 [H16c(dc)], Phase I, 2nd, read-out: MIC) was 4 µg/mL (≈ 12 µM), the MIC (VRE; VRE 008 [H16c(dc)], Phase II, 1st, read-out: MIC) was 2 µg/mL (≈ 5.98 µM) and the MIC (VRE; VRE 008 [H16c(dc)], Phase II, 2nd, read-out: MIC) was 2 µg/mL (≈ 5.98 µM). For the same compound, the MIC (VRE; VRE 009 [H25c], Phase I, 1st, read-out: MIC) was 4 µg/mL (≈ 12 µM), the MIC (VRE; VRE 009 [H25c], Phase I, 2nd, read-out: MIC) was 4 µg/mL (≈ 12 µM) and the MIC (VRE; VRE 009 [H25c], Phase II, 1st, read-out: MIC) was 2 µg/mL (≈ 5.98 µM). The MIC (VRE; VRE 009 [H25c], Phase II, 2nd, read-out: MIC) was 2 µg/mL (≈ 5.98 µM), the MIC (VRE; VRE 010 [H26c(w)], Phase I, 1st, read-out: MIC) was 4 µg/mL (≈ 12 µM) and the MIC (VRE; VRE 010 [H26c(w)], Phase I, 2nd, read-out: MIC) was 4 µg/mL (≈ 12 µM). The MIC (VRE; VRE 010 [H26c(w)], Phase II, 1st, read-out: MIC) was 2 µg/mL (≈ 5.98 µM), the MIC (VRE; VRE 010 [H26c(w)], Phase II, 2nd, read-out: MIC) was 2 µg/mL (≈ 5.98 µM) and the MIC (VRE; VRE 011 [H26c(dc)], Phase I, 1st, read-out: MIC) was 2 µg/mL (≈ 5.98 µM). It also gave an MIC (VRE; VRE 011 [H26c(dc)], Phase I, 2nd, read-out: MIC) of 4 µg/mL (≈ 12 µM), an MIC (VRE; VRE 011 [H26c(dc)], Phase II, 1st, read-out: MIC) of 2 µg/mL (≈ 5.98 µM) and an MIC (VRE; VRE 011 [H26c(dc)], Phase II, 2nd, read-out: MIC) of 2 µg/mL (≈ 5.98 µM). The MIC (VRE; VRE 012 [H35t], Phase I, 1st, read-out: MIC) was 2 µg/mL (≈ 5.98 µM), the MIC (VRE; VRE 012 [H35t], Phase I, 2nd, read-out: MIC) was 2 µg/mL (≈ 5.98 µM) and the MIC (VRE; VRE 012 [H35t], Phase II, 1st, read-out: MIC) was 2 µg/mL (≈ 5.98 µM). The MIC (VRE; VRE 012 [H35t], Phase II, 2nd, read-out: MIC) was 2 µg/mL (≈ 5.98 µM), the MIC (VRE; VRE 013 [H37c(w)], Phase I, 1st, read-out: MIC) was 2 µg/mL (≈ 5.98 µM) and the MIC (VRE; VRE 013 [H37c(w)], Phase I, 2nd, read-out: MIC) was 2 µg/mL (≈ 5.98 µM). It also gave an MIC (VRE; VRE 013 [H37c(w)], Phase II, 1st, read-out: MIC) of 2 µg/mL (≈ 5.98 µM), an MIC (VRE; VRE 013 [H37c(w)], Phase II, 2nd, read-out: MIC) of 2 µg/mL (≈ 5.98 µM) and an MIC (VRE; VRE 014 [H37c(g)], Phase I, 1st, read-out: MIC) of 4 µg/mL (≈ 12 µM). For the same compound, the MIC (VRE; VRE 014 [H37c(g)], Phase I, 2nd, read-out: MIC) was 4 µg/mL (≈ 12 µM), the MIC (VRE; VRE 014 [H37c(g)], Phase II, 1st, read-out: MIC) was 2 µg/mL (≈ 5.98 µM) and the MIC (VRE; VRE 014 [H37c(g)], Phase II, 2nd, read-out: MIC) was 2 µg/mL (≈ 5.98 µM). For the same compound, the MIC (VRE; bioassay ranking, read-out: VRE) was 1.75 µg/mL (≈ 5.24 µM), the “MIC (μg/ml) at 24 hours, VRE 1” value (VRE; isolate VRE 1, 24 hours, 1st and 2nd replicate rows) was 2 µg/mL (≈ 5.98 µM) and the “MIC (μg/ml) at 24 hours, VRE 2” value (VRE; isolate VRE 2, 24 hours, 1st and 2nd replicate rows) was 2 µg/mL and 1 µg/mL. For the same compound, the FIC2 ([1]; MIC of NCL812 in combination with Chloramphenicol/MIC of NCL812 alone, S. aureus strain T3-29) was 0.25 and 0.5, the FIC2 ([1]; MIC of NCL812 in combination with Erythromycin/MIC of NCL812 alone, S. aureus strain T3-29) was 0.5 and 0.25 and the FIC2 ([1]; MIC of NCL812 in combination with Penicillin G/MIC of NCL812 alone, Staphylococcus spp. Strain MK1) was 0.5. For the same compound, the FIC2 ([1]; MIC of NCL812 in combination with Sulfamethoxazole/MIC of NCL812 alone, Staphylococcus spp. Strain MK1) was 0.25 and 0.5, the “NCL812 MIC Alone” value ([1]; Staphylococcus spp. Strain MK1, NCL812 alone) was 2 µg/mL and the “NCL812 MIC With Antibiotic” value ([1]; with Erythromycin, S. aureus strain T3-29) was 2 µg/mL. The “NCL812 MIC With Antibiotic” value ([1]; with Penicillin G, Staphylococcus spp. Strain MK1) was 2 µg/mL and the “NCL812 MIC With Antibiotic” value ([1]; with Sulfamethoxazole, Staphylococcus spp. Strain MK1) was 1 µg/mL and 2 µg/mL.
